According to patent US9364496B2 (ONCOGENEX TECHNOLOGIES INC., priority 2013, dated 2016):
Several values for one entry are separate records, joined by “and”; a condition that tells them apart may be missing. Identical values can stand only once. Marks after values point to notes of the source that are not given here. Oligonucleotides are written 5' to 3', each unit as a sugar letter and its base; * is a phosphorothioate linkage, no mark a phosphodiester; rarer units and linkages stand in square brackets, end groups in braces. Plain capitals give the bases only. e = 2'-O-(2-methoxyethyl) (MOE); [5mC] = 5-methylcytosine; d = 2'-deoxy (DNA)

Columns and labels:
[1] = tested on: RPMI 8226 (human myeloma) xenograft; experiment: In vivo activity of custirsen (TV-1011), different doses and regimens with Bortezomib, RPMI 8226 xenograft (Example 15); conditions: for volume / weight / % of baseline (weight) / Δ % (weight) / Δ weight: group 8: TV-1011 30 mg/kg qd*5, 40 mg/kg biwk
Experimental: 120 CB.17 SCID female mice, 4-6 weeks old, 16-20 grams, obtained from Harlan animal breeding center.
Cells (originated from ATCC) were cultured on RPMI medium. Cell suspension was centrifuged and resuspended in 50% Matrigel/HBSS to a final concentration of 7×10^7 cells/ml. The suspension was implanted s.c. in the right flank of the anesthetized mouse at a volume of 100 μl.
Seven ml saline were added to the original vial containing 3.5 mg powder resulting in 0.5 mg/ml. Three ml of this solution were added to 27 ml saline to receive 0.05 mg/ml concentration. […] 28.5 ml of 4 mg/ml were added to 9.5 saline to receive 3 mg/ml.
Mice were implanted subcutaneously, with 7×10^6 RPMI 8226 cells/mouse (in 50% Martigel/HBSS) on Day 0. On day 21, mice were sorted by the optimal average tumor volume (˜130 mm3) and were allocated into eight groups of 10 mice each.
The treatment started on day 21 post implant, 0.2 ml per 20 grams v/w.
[formula] The analysis of weight gain and tumor volume progression was made using one-way ANOVA followed by Tukey post-hoc comparisons.

renal cancer = format: in vivo, human; conditions: each group; loading doses then custirsen with a chemotherapeutic agent
From the text: At least 50 renal cancer patients are separated into two groups.

[2] = human, in vivo
[3] = TV-1011 alone 30 mg/kg ip qd*5, then 40 mg/kg biwk, day 62
[4] = Day 21 (baseline), group Mean, n 10
[5] = Day 21 (baseline), individual animals
[6] = Day 28 vs Day 21, group Mean, n 10
[7] = Day 28 vs Day 21, individual animals
[8] = Day 33 vs Day 21, group Mean, n 10
[9] = Day 33 vs Day 21, individual animals
[10] = Day 41 vs Day 21, group Mean, n 10
[11] = Day 41 vs Day 21, individual animals
[12] = group mean, n=10, day block 1 of 3
[13] = group mean, n=10, day block 2 of 3
[14] = group mean, n=10, day block 3 of 3
[15] = individual animals, day block 1 of 3
[16] = individual animals, day block 2 of 3
[17] = individual animals, day block 3 of 3

Custirsen: anti-clusterin antisense oligonucleotide CAGCAGCAGAGTCTTCATCAT, phosphorothioate backbone, 2′-O-methoxyethyl at nucleotides 1-4 and 18-21, 5-methylcytosines at 1, 4, 19 (antisense e[5mC]*eA*eG*e[5mC]*dA*dG*dC*dA*dG*dA*dG*dT*dC*dT*dT*dC*dA*eT*e[5mC]*eA*eT; listed as Homo sapiens)
efficacy, in words ([1]; Custirsen 30 mg/kg qdx5 then 40 mg/kg biwk, alone): very efficacious
effect of continuous treatment versus loading only ([1]; Custirsen with Velcade, maintained vs loading only): dose-dependent and results in better outcome versus loading only
Max BW (mean) reduction ([1]; TV-1011 alone 30 mg/kg ip qd*5, then 40 mg/kg biwk, day 28): −0.5%
% TGI [1, 3]: 67%
No. of CR [1, 3]: 0
No. of PR [1, 3]: 1
No. of TRD [1, 3]: 0
No. og nTRD [1, 3]: 0
Δ mean tumor volume, (mean ± se) [1, 3]: 574 ± 118
% TGI ([1]; TV-1011 alone 30 mg/kg ip qd*5, then 40 mg/kg biwk, day 62, listed as TV-1011): 67*** %
volume [1, 4]: 129.3
weight [1, 4]: 18.8
volume [1, 5]: 107 and 113 and 116 and 119 and 123 and 128 and 131 and 138 and 147 and 172
weight [1, 5]: 21.4 and 17.7 and 20.5 and 15.9 and 19.6 and 20.3 and 17.9 and 16.6 and 20.1 and 17.8
% of baseline (weight) ([1]; Day 28, group Mean, n 10): 99.5%
volume ([1]; Day 28, group Mean, n 10): 158.1
weight ([1]; Day 28, group Mean, n 10): 18.7
% of baseline (weight) ([1]; Day 28, individual animals): 98.0% and 104.0% and 102.6% and 95.2% and 96.9% and 94.4% and 103.0% and 98.7% and 98.3%
volume ([1]; Day 28, individual animals): 78 and 127 and 114 and 149 and 180 and 204 (2×) and 159 and 175 and 193
weight ([1]; Day 28, individual animals): 21.0 and 118.5 and 21.3 and 16.3 and 18.7 and 19.6 and 16.9 and 17.1 and 19.9 and 17.5
Δ % (weight) [1, 6]: −0.5%
Δ weight [1, 6]: −0.1
Δ % (weight) [1, 7]: −2.0% and 4.4% and 4.0% and 2.6% and −4.8% and −3.1% and 5.6% and 3.0% and −1.3% and −1.7%
Δ weight [1, 7]: −0.4 and 0.8 (2×) and 0.4 and −0.9 and −0.6 and −1.0 and 0.5 and −0.3 (2×)
% of baseline (weight) ([1]; Day 33, group Mean, n 10): 101.6%
volume ([1]; Day 33, group Mean, n 10): 147.0
weight ([1]; Day 33, group Mean, n 10): 19.1
% of baseline (weight) ([1]; Day 33, individual animals): 97.8% and 108.3% and 108.1% and 95.9% and 94.0% and 101.3% and 98.3% and 105.5% and 99.9% and 107.3%
volume ([1]; Day 33, individual animals): 132 and 131 and 120 and 116 and 167 and 157 and 100 and 154 and 206 and 186
weight ([1]; Day 33, individual animals): 20.9 and 19.2 and 22.1 and 15.2 and 18.4 and 20.5 and 17.6 and 17.5 and 20.1 and 19.1
Δ % (weight) [1, 8]: 1.6%
Δ weight [1, 8]: 0.3
Δ % (weight) [1, 9]: −2.2% and 8.3% and 8.1% and −4.1% and −6.0% and 1.3% and −1.7% and 5.5% and −0.1% and 7.3%
Δ weight [1, 9]: −0.5 and 1.5 and 1.7 and −0.6 and −1.2 and 0.3 and −0.3 and 0.9 and 0.0 and 1.3
% of baseline (weight) ([1]; Day 41, group Mean, n 10): 106.8%
volume ([1]; Day 41, group Mean, n 10): 184.3
weight ([1]; Day 41, group Mean, n 10): 20.0
% of baseline (weight) ([1]; Day 41, individual animals): 101.4% and 112.9% and 111.2% and 108.4% and 102.9% and 102.3% and 105.9% and 112.3% and 106.7% and 103.9%
volume ([1]; Day 41, individual animals): 76 and 144 and 140 and 139 and 336 and 249 and 152 and 185 and 223 and 200
weight ([1]; Day 41, individual animals): 21.7 and 20.0 and 22.8 and 17.2 and 20.2 and 20.7 and 18.9 and 18.7 and 21.5 and 18.5
Δ % (weight) [1, 10]: 6.8%
Δ weight [1, 10]: 1.2
Δ % (weight) [1, 11]: 1.4% and 12.9% and 11.2% and 8.4% and 2.9% and 2.3% and 5.9% and 6.7% and 3.9%
Δ weight [1, 11]: 0.3 and 2.3 (2×) and 1.3 (2×) and 0.6 and 0.5 and 1.1 and 2.0 and 0.7
% of baseline (weight) [1, 12]: 113.8%
volume [1, 12]: 344.4
Δ % (weight) [1, 12]: 13.8%
Δ weight [1, 12]: 2.5
weight ([1]; group mean, n=10, day block 1 of 3 (day head not shown)): 21.3
% of baseline (weight) [1, 13]: 109.2%
volume [1, 13]: 476.6
weight [1, 13]: 20.4
Δ % (weight) [1, 13]: 9.2%
Δ weight [1, 13]: 1.7
% of baseline (weight) [1, 14]: 111.5%
volume [1, 14]: 702.9
weight [1, 14]: 20.9
Δ % (weight) [1, 14]: 11.5%
Δ weight [1, 14]: 2.1
% of baseline (weight) [1, 15]: 108.5% and 116.7% and 112.9% and 120.7% and 110.1% and 107.6% and 114.4% and 123.3% and 115.7% and 108.4%
volume [1, 15]: 101 and 360 and 268 and 267 and 556 and 581 and 211 and 257 and 451 and 392
Δ % (weight) [1, 15]: 8.5% and 16.7% and 12.9% and 20.7% and 10.1% and 7.6% and 14.4% and 23.3% and 15.7% and 8.4%
Δ weight [1, 15]: 1.8 and 3.0 and 2.6 (2×) and 3.3 and 2.0 and 1.5 (2×) and 3.9 and 3.2
weight ([1]; individual animals, day block 1 of 3 (day head not shown)): 23.2 and 20.6 and 23.1 and 19.1 and 21.6 and 21.8 and 20.5 (2×) and 23.3 and 19.3
% of baseline (weight) [1, 16]: 103.3% and 116.7% and 109.7% and 122.9% and 103.1% and 104.0% and 106.1% and 114.0% and 108.4% and 103.7%
volume [1, 16]: 106 and 638 (2×) and 463 and 399 and 767 and 663 and 257 and 246 and 588
weight [1, 16]: 22.1 and 20.7 and 22.4 and 19.5 and 20.2 and 21.1 and 19.0 (2×) and 21.8 and 18.4
Δ % (weight) [1, 16]: 3.3% and 16.7% and 9.7% and 22.9% and 3.1% and 4.0% and 6.1% and 14.0% and 8.4% and 3.7%
Δ weight [1, 16]: 0.7 (2×) and 3.0 and 2.0 and 3.6 and 0.6 and 0.8 and 1.1 and 2.3 and 1.7
% of baseline (weight) [1, 17]: 105.9% and 121.8% and 111.4% and 118.7% and 106.2% and 107.1% and 106.8% and 119.0% and 112.4% and 106.3%
volume [1, 17]: 92 and 955 and 891 and 568 and 1324 and 804 and 379 and 273 and 1001 and 742
weight [1, 17]: 22.7 and 21.5 and 22.8 and 18.8 and 20.8 and 21.7 and 19.1 and 19.8 and 22.6 and 18.9
Δ % (weight) [1, 17]: 5.9% and 21.8% and 11.4% and 18.7% and 6.2% and 7.1% and 6.8% and 19.0% and 12.4% and 6.3%
Δ weight [1, 17]: 1.3 and 3.9 and 2.3 and 3.0 and 1.2 (2×) and 1.4 and 3.2 and 2.5 and 1.1
cancer condition of patients (renal cancer): improves
INR values [2]: ≤ 1.5
grade 1 increase in PTT, number [2]: 1
hepatic transaminase elevations [2]: Grade 1 and 2
incidence of elevated liver function tests (ELFTs) [2]: higher incidence
